Source: patent US6635629B2, “3-nitrogen-6,7-dioxygen steroids and uses related thereto” (Inflazyme Pharmaceuticals Ltd., priority 2000, dated 2003)
In brackets after ≈: the same amount, converted by molar mass.

Columns and labels:
[1] = test system: sensitized Brown Norway rats; test: Ovalbumin-induced accumulation of inflammatory cells in lung lavage fluid of sensitized Brown Norway rats; format: in vivo, rat; details: p.o.
Method: The ability of a compound to inhibit the allergen-induced accumulation of inflammatory cells such as eosinophils and neutrophils in the lavage fluid obtained from sensitized animals is indicative of that compound's anti-asthma activity. […] The test is conducted as follows.
Male Brown Norway rats are sensitized to ovalbumin by single intraperitoneal injection of 1 mg ovalbumin adsorbed to 100 mg A(OH)3 (alum) in 1 ml sterile saline (saline control rats receive only sterile saline) on day 1, and allowed to sensitize until day 21. […] Rats are challenged with 0.5% ovalbumin in saline generated using a Devillbis nebulizer for 60 min on day 21.
Forty-eight hrs after challenge, animals are sacrificed with an overdose of intraperitoneally-delivered sodium pentobarbitol and the lungs are lavaged with cold 2×7 ml phosphate buffered saline. The recovered lavage fluid is placed on ice. The bronchoalveolar lavage fluid is centrifuged and the supernatant removed. The pellet is resuspended in phosphate buffered saline at 4° C. Cytospins are prepared and stained for differentiation and enumeration of cell types.
Test compound was administered in 300 μl corn oil (Tables 7 and 8) or water (Table 9), which were used as vehicles. Control animals received 300 μl corn oil or water alone, i.e., no drug. […] A negative value in Table 7, 8, or 9 indicates an exacerbation of the effect over the control animal.

[2] = Pharmacokinetics in the rat; format: in vivo; details: plasma; for bioavailability: po
[3] = Pharmacokinetics in the monkey; format: in vivo; details: plasma; for bioavailability: po
[4] = physchem; details: water
[5] = test system: mouse ear edema; test: Irritant-induced (phorbol 12-myristate 13-acetate) mouse ear edema; format: in vivo; details: 15 mg/kg orally in 45% β-cyclodextrin in saline; 3 hours after PMA; compared to control animals
Method: A number of mice are uniquely identified by placing a mark with an indelible marker on their tail. Mice are dosed orally with 15 mg/kg test compound in 100 μl of 45% β-cyclodextrin in saline. Mice are briefly anaesthesized with 2% halothane, and 2 μg of phorbol 12-myristate 13-acetate in 25 μl of acetone is applied to the inner and outer sides of the left ear of the mouse. Acetone is applied to the right ear of the mouse in the same manner to serve as a vehicle control. Control animals receive the same treatment but without any test compound. After 3 hours, mice are sacrificed by cervical dislocation, and a standard sized biopsy is excised from the ears and weighed to the nearest 1/10th of a mg. Data are analyzed by taking the difference of each left ear from the right ear, and then calculating the % inhibition of edema by (((mean Rx/mean irritant))×100)-100.
For example, compound 83 inhibits irritant-induced mouse ear edema by 38% compared to control animals.

[6] = Metabolic stability in human liver S9 fractions; format: in vitro ADME; details: human, 10 μM, pH 7
Description: The therapeutic effectiveness of a test compound can be often directly related to its metabolic stability in vivo. The majority of known, marketed drugs are metabolized by a group of enzymes known as P450 enzymes. The S9 fraction of human liver contains all the P450 enzymes and also cytoplasmic enzymes that may be involved in the metabolism of new chemical entities. Metabolism in vitro using human S9 fractions is a standard assay to evaluate relative metabolic stability of new compounds. The test is performed as follows.
Reagents are thawed on ice and combined to make up a Master Mix as follows: Potassium phosphate (100 mM, pH 7), G6P (0.25 mM), G6PDH (2 U/ml), NADPH (1 mM), UDP (0.25 mM), APPS (0.25 mM), and S9 fraction (2 mg/ml). A volume of 498 μl of the Master mix is dispensed into each microcentrifuge tube. A volume of 2 μl of 2.5 mM test compound (final concentration of 10 μM) is dispensed into the center of the lid of the appropriate tube, and the lids gently closed to prevent mixing. Synchronous combination of test compound and master mix is achieved by simultaneous ten times inversion of the tubes, which are then incubated at 37° C. and shaken at 150 rpm for the appropriate incubation times. While incubation is in progress, all 0 time samples are mixed individually by three times inversion followed by the immediate addition of 500 μl ice cold acetonitrile with three times inversion to stop the reaction. Immediately after each 15 minutes and 30 minutes incubation is complete, ice cold acetonitrile is added to each tube and the tubes mixed by three times inversion. All sample tubes are incubated at −80° C. for a minimum of 15 minutes, thawed and remixed by inversion. Aliquots of 650 μl are transferred to Chromatographic Specialties micro-spin filter system tubes (0.2 μm nylon membrane, C618505) and centrifuged at 13,000 rpm for 48 seconds. The sample filtrates are stored at −80° C.
Sample filtrates are analyzed on LCMS, and percent remaining after 15 and 30 minute incubation is calculated relative to the 0 minute incubation.
The metabolic stability of various compounds are summarized in Table 10 as the percent remaining after 15 or 30 minutes incubation with human liver S9 fractions.

[7] = test system: rat mast cell line (RBL-2H3); test: Antigen-induced release of hexosaminidase from a rat mast cell line (RBL-2H3); format: cell-based; details: inhibition of DNP-HSA antigen-induced hexosaminidase release; tested at 0.3, 3, 10 and 30 μM; read-out: Hex IC50
Method: The anti-allergic effects of a compound of the present invention was evaluated by measuring its effect on antigen-induced secretion of hexosaminidase from a passively sensitized rat mast cell line. The ability of a test compound to inhibit the release of mast cell granule contents, e.g., histamine and hexosaminidase, is indicative of the anti-allergy and/or anti-asthma activity of the compound. Hexosaminidase is released from the mast cell granule along with histamine and other mediators during antigen challenge. The test is performed as follows.
RBL-2H3 cells are grown in culture and passively sensitized for 1 hour at 37° C. to dinitrophenol (DNP) using anti-human-DNP (IgE). Cells are incubated with test compound for 30 minutes at 37° C. and stimulated with 0.5 μg/ml DNP-HSA (antigen) for 30 minutes. Aliquots of the supernatant are removed and used to measure the amount of hexosaminidase released during challenge with the antigen. […] The effect of each test compound is determined as a percentage of the antigen-induced response (minus background release) obtained in the presence of DMSO alone. These values are used to determine the degrees of inhibition of antigen-induced hexosaminidase release from the cells.

[8] = test system: Jurkat clone E6.1 cells; test: Antigen-induced (anti-CD3 mAb) calcium flux in Jurkat clone E6.1 cells; format: cell-based; details: 20 μM; anti-CD3 mAb 4 μg/mL; Fura 2AM
Description: Elevation of cytoplasmic calcium concentration is a common and crucial event which follows the activation of many types of cell surface receptors. Increases in intracellular calcium that occur following agonist activation of inositol lipid hydrolysis are the results of calcium release from the endoplasmic reticulum and the influx of calcium through the plasma membrane. Increases in cytosolic calcium concentration are involved in many important cellular responses in the inflammatory process including adhesion, motility, gene expression, proliferation, and degranulation. Changes in intracellular calcium centrations can affect both short and long term cellular responses. An assay method to evaluate a test compound's impact on calcium flux is provided as follows.
The resulting supernatants are discarded and each pellet is washed in 10 mL HBSS. Cell suspensions are accumulated and centrifuged for 5 minutes at 900 RPM to form a cell pellet. The resulting supernatant is discarded and the pellet is resuspended in HBSS at 1×10^7 cells/mL. The cell suspension is transferred to a 20 mm petri dish and incubated at 37° C., 5% CO2 for 20 minutes.
One volume of Fura 2AM is mixed to one volume of detergent Pluronic F127. Cells are labeled with 4 μL of probe solution to each mL of cell suspension. The petri dish is wrapped in aluminum foil to protect from light and placed on a plate shaker for 30 minutes at room temperature.
The following steps are done in the laminar flow hood with the fluorescent lights turned off. The petri dish is removed from the shaker and the labeled cell suspension is transferred to a 15 mL conical tube and washed twice with HBSS as above. The cell pellet is resuspended in 12 mL HBSS and left wrapped in foil for 30 minutes at room temperature. The labeled cell suspension is aliquoted (100 μL/well) into a Dynex 96 well white opaque tissue culture plate. […] Selected compounds were tested for dose related activity. Test samples and activator (anti—CD3 mAb at final concentration of 4 μg/mL, PharMingen) are added manually (50 μL), such that the minimum time to acquire the first data point after stimulation is approximately 30 seconds. The calcium influx response to anti-CD3 mAb is measured as an “end point” assay. The entire plate is read in 100 seconds using a kinetic of 1 second per well.
The plate is read before the addition of anti-CD3 to monitor non-specific effect of samples/drugs. Fluorescence emission is measured at 510 nm with excitation alternating between 340 and 380 every second using an excitation/emission filter pair. Data from these dual wavelengths are represented as a ratio of 2 excitations wavelengths. This ratio is independent of intracellular dye and cell concentrations, enabling real comparison between experiments.

[9] = 0.03 mg/kg, 4 days qd, water vehicle
[10] = 0.1 mg/kg, 4 days qd, water vehicle
[11] = 0.3 mg/kg, 4 days qd, water vehicle
[12] = 1 mg/kg, 4 days qd, water vehicle
[13] = 5 mg/kg/day for 4 days, corn oil vehicle, relative to control animals

For `C/C=C1/CCC2C3C(CC[C@]12C)[C@@]1(C)CC[C@H](N)CC1[C@@H](O)[C@@H]3O` (stereo partly shown) [Compound 28], the “% inhibition of eosinophils” value [1, 9] was 5%, the “% inhibition of lymphocytes” value [1, 9] was −5% and the “% inhibition of neutrophils” value [1, 9] was −26%. The “% inhibition of eosinophils” value [1, 10] was 29%, the “% inhibition of lymphocytes” value [1, 10] was 50% and the “% inhibition of neutrophils” value [1, 10] was −10%. The “% inhibition of eosinophils” value [1, 11] was 71%, the “% inhibition of lymphocytes” value [1, 11] was 85% and the “% inhibition of neutrophils” value [1, 11] was 66%. The “% inhibition of eosinophils” value [1, 12] was 60%, the “% inhibition of lymphocytes” value [1, 12] was 70% and the “% inhibition of neutrophils” value [1, 12] was 41%. The “% inhibition of eosinophils” value [1, 13] was 85%, the “% inhibition of lymphocytes” value [1, 13] was 124% and the “% inhibition of neutrophils” value [1, 13] was 87%. It also gave a half-life [2] of 7.5 h, a bioavailability [2] of about 100% and a half-life [3] of 15 h. It also gave a bioavailability [3] of 25 to 30% and a solubility ([4]; solubility at room temperature) of about 30 mg/mL (≈ 90 mM).

In the case of `C/C=C1/CCC2C3C(CC[C@]12C)[C@@]1(C)CC[C@H](N)CC1[C@@H](O)[C@@H]3O` (stereo partly shown) [Compound 83], the “% inhibition of eosinophils” value [1, 13] is reported as 67%, the “% inhibition of lymphocytes” value [1, 13] is reported as 38% and the “% inhibition of neutrophils” value [1, 13] is reported as 34%. The “inhibition of irritant-induced mouse ear edema” value [5] was 38%, the “% remaining after 15 min” value ([6]; s9, 15 min) was 92 ± 19% and the “% remaining after 30 min” value ([6]; s9, 30 min) was 91 ± 21%.

With `C=C1CCC2C3C(CC[C@]12C)[C@@]1(C)CC[C@H](N)CC1[C@@H](O)[C@@H]3O` (stereo partly shown) [Compound 89] the IC50 [7] was 11.5 µM, the “Calcium (% inhibition at 20 μM)” value [8] was 15.0% and the “% inhibition of eosinophils” value [1, 10] was 35%. The “% inhibition of lymphocytes” value [1, 10] was 2%, the “% inhibition of neutrophils” value [1, 10] was 25% and the “% inhibition of eosinophils” value [1, 11] was 80%. For the same compound, the “% inhibition of lymphocytes” value [1, 11] was 70%, the “% inhibition of neutrophils” value [1, 11] was 72% and the “% inhibition of eosinophils” value [1, 12] was 71%. The “% inhibition of lymphocytes” value [1, 12] was 6%, the “% inhibition of neutrophils” value [1, 12] was 66% and the “% inhibition of eosinophils” value [1, 13] was 57%. The “% inhibition of lymphocytes” value [1, 13] was 64%, the “% inhibition of neutrophils” value [1, 13] was 60% and the half-life [2] was 7.5 h. It also gave a bioavailability [2] of about 100%, a half-life [3] of 15 h and a bioavailability [3] of 25 to 30%. The solubility ([4]; solubility at room temperature) was about 30 mg/mL (≈ 93.9 mM) and the solubility ([4]; solubility in water) was over 100 mg/mL.
